Here are results for 15 molecules from patent US20110245284A1, “Alkoxy- and Alkylthio-Substituted Anilinopyrimidines” (Bayer CropScience AG, priority 2008, published 2011).

Where two headings read alike, the source gives them in different places.

In general, chromatographic logP refers to lipophilicity estimated from chromatographic retention. Low values mean lower lipophilicity, high ones higher lipophilicity.

One series deals with Fusarium proliferatum. The series is described as follows: Production of fumonisin FB1 by Fusarium proliferatum (microtitre plates; FB1 by HPLC-MS/MS, growth by OD620). The following applies: for IC50: Fusarium proliferatum, 144 h. It is filed as cell-based.
The subject of the next series is Leptosphaeria nodorum. The series is described as follows: Leptosphaeria nodorum test (wheat) / protective. In kind it is in vivo. To be noted: Parastagonospora nodorum, active compound concentration 500 ppm, evaluation 7-9 days after inoculation, read-out: efficacy. How it is done: Thereafter, the plants are placed in a greenhouse at 90% relative atmospheric humidity and a temperature of 22° C.

Series [1] can be described thus: logP by HPLC on reversed-phase columns (C 18), method [a], acidic range pH 2.3. The following applies: pH 2.3, logP (pH2.3). In kind it is physicochemical. The method, then: (§1) The logP values were determined in accordance with EEC Directive 79/831 Annex V.A8 by HPLC (High Performance Liquid Chromatography) on reversed-phase columns (C 18), using the methods below:
[a] The determination is carried out in the acidic range at pH 2.3 using the mobile phases 0.1% aqueous phosphoric acid and acetonitrile, linear gradient from 10% acetonitrile to 95% acetonitrile.

Another series has as its system Venturia inaequalis. The series is described as follows: Venturia test (apple) / protective. In kind it is in vivo. The following applies: 240 h, active compound concentration 100 ppm, evaluation 10 days after inoculation, read-out: efficacy. How it is done: After the spray coating has dried on, the plants are inoculated with an aqueous conidia suspension of the apple scab pathogen Venturia inaequalis and then remain for 1 day in an incubation cabinet at about 20° C. and 100% relative atmospheric humidity.

The nature of series [2]: logP by LC-MS on reversed-phase columns (C 18), method [b], acidic range pH 2.7. It is filed as physicochemical. To be noted: for chromatographic logP: pH 2.7, log p. The method, then:
as §1
[b] The LC-MS determination in the acidic range is carried out at pH 2.7 using the mobile phases 0.1% aqueous formic acid and acetonitrile (contains 0.1% formic acid), linear gradient from 10% acetonitrile to 95% acetonitrile.

A further series deals with Alternaria solani. The series is described as follows: Alternaria test (tomato) / protective. In kind it is in vivo. The following applies: 72 h, active compound concentration 100 ppm, evaluation 3 days after inoculation, read-out: efficacy. How it is done:
The plants are then placed in an incubation cabinet at about 20° C. and 100% relative atmospheric humidity.

The next series deals with Pyrenophora teres. Description: Pyrenophora teres test (barley) / protective. It is filed as in vivo. The following applies: 192 h, active compound concentration 500 ppm, evaluation 8 days after inoculation, read-out: efficacy. The method, then:
After the spray coating has dried on, the plants are sprayed with a spore suspension of Pyrenophora teres. The plants remain in an incubation cabinet for 48 hours at 20° C. and 100% relative atmospheric humidity.

The subject of another series is Sphaerotheca fuliginea. Description: Sphaerotheca test (cucumber) / protective. It is filed as in vivo. To be noted: Podosphaera fuliginea, 168 h, active compound concentration 500 ppm, evaluation 7 days after inoculation, read-out: efficacy. The method, then:
The plants are subsequently placed in a greenhouse at 70% relative atmospheric humidity and a temperature of 23° C.

The subject of another series is Pyricularia oryzae. The series is described as follows: whole plant or invertebrate. It is filed as in vivo. The following applies: 120 h, read-out: efficacy.
In a further series the test system is Cochliobolus miyabeanus. The series is described as follows: Cochliobolus test (rice) / protective. The following applies: Bipolaris oryzae, in Oryza sativa, 96 h, read-out: efficacy.
Another series relates to Rhizoctonia solani. Description: Rhizoctonia test (rice) / protective. In kind it is in vivo. The following applies: 96 h, active compound concentration 250 ppm, evaluation 4 days after inoculation, read-out: efficacy.
Series [3] can be described thus: logP by LC-MS on reversed-phase columns (C 18), method [c], neutral range pH 7.8. It is filed as physicochemical. The following applies: pH 7.8. The method, then:
as §1
[c] The LC-MS determination in the neutral range is carried out at pH 7.8 using the mobile phases 0.001 molar aqueous ammonium bicarbonate solution and acetonitrile, linear gradient from 10% acetonitrile to 95% acetonitrile.

The mark [4] stands for this setting: growth, OD620 at the beginning and after 6 days, read-out: pI50 growth (converted).

Method for Cochliobolus miyabeanus: Cochliobolus Test (Rice)/Protective • Solvent: 28.5 parts by weight of acetone • Emulsifier: 1.5 parts by weight of alkylaryl polyglycol ether
1 day after the treatment, the plants are inoculated with an aqueous spore suspension of Cochliobolus miyabeanus. The plants are then placed in a greenhouse at 100% relative atmospheric humidity and 25° C.
Evaluation is carried out 4 days after the inoculation.

For the molecule `COCC(C)Oc1ccc(Nc2ncc(Br)c(NC3CC3)n2)cc1` (stereo not drawn) [Example 1, 5-Bromo-N^4-cyclopropyl-N^2-{4-[(1-methoxypropan-2-yl)oxy]phenyl}pyrimidine-2,4-diamine], the results for the IC50 in the series on Fusarium proliferatum (read-out: pI50 Fum) and with Fusarium proliferatum (setting [4]) were 1.26 µM and 6.31 µM, respectively. Besides, in the series with Leptosphaeria nodorum, the pest or weed control at 500 ppm was not below 70%. Further, the chromatographic logP in [1] and in series [2] was 1.83 throughout. Also, in the series on Venturia inaequalis, the pest or weed control at 100 ppm was not below 70%.
As for `CCSC(C)c1cccc(Nc2ncc(Br)c(NC3CCC3)n2)c1` (stereo not drawn) [Example 12], the results for the IC50 with Fusarium proliferatum (read-out: pI50 Fum) and in the series with Fusarium proliferatum (setting [4]) were 10 µM and more than 50.1 µM, respectively. Also, the pest or weed control at 500 ppm with Leptosphaeria nodorum and in the series on Pyrenophora teres was not below 70% throughout. In addition, the pest or weed control at 100 ppm in the series on Alternaria solani and with Venturia inaequalis was not below 70% in each case. Further, the chromatographic logP in series [2] is 3.49.
Take `COC(C)c1cccc(Nc2ncc(Cl)c(NC3CCC3)n2)c1` (stereo not drawn) [Example 15]: the pest or weed control at 500 ppm in the series with Leptosphaeria nodorum, in the series with Sphaerotheca fuliginea and with Pyrenophora teres was not below 70% each time. The pest or weed control at 100 ppm in the series on Alternaria solani and in the series with Venturia inaequalis was not below 70% in each case. Besides, the pest or weed control at 250 ppm with Pyricularia oryzae, in the series with Cochliobolus miyabeanus and with Rhizoctonia solani was not below 80% each time. This molecule came in with a chromatographic logP in [2] of 2.27.
Turning to `COC(C)c1cccc(Nc2ncc(Br)c(NC3CCC3)n2)c1` (stereo not drawn) [Example 20], the IC50 in the series on Fusarium proliferatum (read-out: pI50 Fum) was 0.794 µM; in the series on Fusarium proliferatum (setting [4]), 3.98 µM. Further, the pest or weed control at 500 ppm in the series with Leptosphaeria nodorum and in the series on Pyrenophora teres was not below 70% each time. Besides, the pest or weed control at 100 ppm in the series on Alternaria solani and with Venturia inaequalis was not below 70% throughout. Also, the pest or weed control at 250 ppm with Pyricularia oryzae, in the series with Cochliobolus miyabeanus and in the series with Rhizoctonia solani was not below 80% in each case. Further, the chromatographic logP in series [2] was 2.46.
`COCc1cccc(Nc2ncc(C(F)(F)F)c(NC3CCC3)n2)c1` [Example 24]: the IC50 was 2 µM with Fusarium proliferatum (read-out: pI50 Fum) and 7.94 µM with Fusarium proliferatum (setting [4]). Moreover, the pest or weed control at 500 ppm in the series on Leptosphaeria nodorum and in the series with Pyrenophora teres was not below 70% throughout. Moreover, the pest or weed control at 250 ppm in the series with Pyricularia oryzae and in the series on Rhizoctonia solani was not below 80% throughout. Also, in series [2], the chromatographic logP worked out at 3.3.
In the case of `CCS(=O)(=O)c1cccc(Nc2ncc(Cl)c(NC3CCC3)n2)c1` [Example 27, 5-chloro-N^4-cyclobutyl-N^2-[3-(ethylsulphonyl)phenyl]pyrimidine-2,4-diamine], the IC50 in the series with Fusarium proliferatum (read-out: pI50 Fum) is 2 µM; in the series with Fusarium proliferatum (setting [4]), 20 µM. In addition, the pest or weed control at 500 ppm in the series on Leptosphaeria nodorum and in the series with Sphaerotheca fuliginea was not below 70% throughout. Also, the pest or weed control at 100 ppm in the series with Alternaria solani and in the series with Venturia inaequalis was not below 70% throughout. Further, the pest or weed control at 250 ppm in the series with Pyricularia oryzae and in the series with Cochliobolus miyabeanus was not below 80% throughout. The chromatographic logP in series [1] and in series [2] was 2.21 in each case.
Regarding `CC[S+]([O-])C(C)c1cccc(Nc2ncc(C(F)(F)F)c(NC3CC3)n2)c1` (stereo not drawn) [Example 45], the “pI50 Fum” value in the series with Fusarium proliferatum (fumonisin FB1 production, 6 days at 20° C., HPLC-MS/MS) was 5.0. The pI50 growth with Fusarium proliferatum (growth, OD620 at the beginning and after 6 days) is 4.7. The log p in series [2] (pH 2.7) is 2.2[b].
On to `CCCSc1cccc(Nc2ncc(Br)c(NC3CCC3)n2)c1` [Example 57], for which the pest or weed control at 500 ppm in the series on Leptosphaeria nodorum, with Sphaerotheca fuliginea and in the series on Pyrenophora teres was not below 70% each time. Further, the pest or weed control at 100 ppm in the series with Alternaria solani and with Venturia inaequalis was not below 70% in each case. For the same molecule, the pest or weed control at 250 ppm in the series with Pyricularia oryzae, in the series with Cochliobolus miyabeanus and in the series on Rhizoctonia solani was not below 80% throughout. For the same molecule, the chromatographic logP in series [2] was determined as 3.96.
On to `COC(C)(C)c1cccc(Nc2ncc(Cl)c(NC3CC3)n2)c1` [Example 59], for which the IC50 in the series on Fusarium proliferatum (read-out: pI50 Fum) was 0.501 µM; in the series on Fusarium proliferatum (setting [4]), 3.16 µM. In addition, the pest or weed control at 500 ppm with Leptosphaeria nodorum, in the series with Sphaerotheca fuliginea and in the series on Pyrenophora teres was not below 70% each time. For the same molecule, the pest or weed control at 100 ppm with Alternaria solani and in the series with Venturia inaequalis was not below 70% in each case. Moreover, the figures for the chromatographic logP in [3] and in [2] were 3.5 and 2.16, respectively. Moreover, the pest or weed control at 250 ppm in the series on Pyricularia oryzae, with Cochliobolus miyabeanus and in the series on Rhizoctonia solani was not below 80% in each case.
Regarding `COCCc1cccc(Nc2ncc(Cl)c(NC3CC3)n2)c1` [Example 60], the IC50 in the series on Fusarium proliferatum (read-out: pI50 Fum) was 0.631 µM; in the series with Fusarium proliferatum (setting [4]), 1.58 µM. For the same molecule, the pest or weed control at 500 ppm in the series with Leptosphaeria nodorum, in the series with Sphaerotheca fuliginea and in the series with Pyrenophora teres was not below 70% each time. The pest or weed control at 100 ppm in the series on Alternaria solani and in the series on Venturia inaequalis was not below 70% each time. In addition, the pest or weed control at 250 ppm with Pyricularia oryzae, with Cochliobolus miyabeanus and in the series on Rhizoctonia solani was not below 80% throughout. In series [2], this molecule yielded a chromatographic logP of 2.41.
`CCC(SC)c1cccc(Nc2ncc(C(F)(F)F)c(NC3CC3)n2)c1` (stereo not drawn) [Example 62]: the IC50 with Fusarium proliferatum (read-out: pI50 Fum) is 15.8 µM; in the series on Fusarium proliferatum (setting [4]), more than 50.1 µM. Also, the pest or weed control at 500 ppm in the series on Leptosphaeria nodorum and in the series with Sphaerotheca fuliginea was not below 70% throughout. The pest or weed control at 100 ppm in the series on Alternaria solani and in the series with Venturia inaequalis was not below 70% throughout. For the same molecule, the pest or weed control at 250 ppm in the series with Pyricularia oryzae, with Cochliobolus miyabeanus and in the series on Rhizoctonia solani was not below 80% in each case. The molecule further displayed a chromatographic logP in [2] of 4.23.
Turning to `COC(C)(C)Cc1cccc(Nc2ncc(Cl)c(NC3CC3)n2)c1` [Example 64], the IC50 with Fusarium proliferatum (read-out: pI50 Fum) is 0.631 µM; in the series on Fusarium proliferatum (setting [4]), 5.01 µM. Besides, the pest or weed control at 500 ppm in the series on Leptosphaeria nodorum and in the series on Pyrenophora teres was not below 70% throughout. For the same molecule, the pest or weed control at 100 ppm in the series with Alternaria solani and in the series with Venturia inaequalis was not below 70% in each case. The chromatographic logP is 3.81 in series [3] and 2.21 in [2]. For the same molecule, in the series on Pyricularia oryzae, the pest or weed control at 250 ppm is not below 80%.
With `CC[S+]([O-])C(C)c1cccc(Nc2ncc(Cl)c(NC3CCC3)n2)c1` (stereo not drawn) [Example 76], the pest or weed control at 500 ppm in the series with Leptosphaeria nodorum, in the series with Sphaerotheca fuliginea and with Pyrenophora teres was not below 70% in each case. In addition, the pest or weed control at 100 ppm in the series with Alternaria solani and with Venturia inaequalis was not below 70% in each case. For the same molecule, the figures for the chromatographic logP in series [3] and in series [2] were 2.53 and 1.68, respectively. In addition, the pest or weed control at 250 ppm with Pyricularia oryzae, in the series with Cochliobolus miyabeanus and in the series with Rhizoctonia solani was not below 80% in each case.
As to `CCS(=O)(=O)C(C)c1cccc(Nc2ncc(Cl)c(NC3CCC3)n2)c1` (stereo not drawn) [Example 77], the pest or weed control at 500 ppm with Leptosphaeria nodorum, in the series with Sphaerotheca fuliginea and in the series on Pyrenophora teres was not below 70% each time. The pest or weed control at 100 ppm with Alternaria solani and in the series on Venturia inaequalis was not below 70% throughout. The chromatographic logP in [3] is 2.98; in [2], 1.9. Besides, the pest or weed control at 250 ppm with Pyricularia oryzae, with Cochliobolus miyabeanus and with Rhizoctonia solani was not below 80% each time.
With `COC(C)c1cccc(Nc2ncc(Cl)c(NC(C)C)n2)c1` (stereo not drawn) [Example 129], the pest or weed control at 500 ppm with Leptosphaeria nodorum and in the series on Sphaerotheca fuliginea was not below 70% in each case. The pest or weed control at 100 ppm in the series with Alternaria solani and in the series with Venturia inaequalis was not below 70% throughout. The chromatographic logP is 3.67 in [3] and 2.02 in series [2]. Further, the pest or weed control at 250 ppm in the series on Pyricularia oryzae, in the series on Cochliobolus miyabeanus and in the series on Rhizoctonia solani was not below 80% each time.
